Values of other authors, collected in patent US20150209317A1, “Plant Extracts for Improving Cognitive Function” (Kemin Industries, Inc., priority 2014, published 2015).

Assays:
[1] = system: aging mice; details: RA administration to aging mice
[2] = subchronic administration (Park 2010)

Catalase (CAT) activity in the brain [1]: increased
Superoxide dismutase (SOD) activity in the brain [1]: increased
Structure (SMILES): O=C(/C=C/c1ccc(O)c(O)c1)O[C@H](Cc1ccc(O)c(O)c1)C(=O)O [Rosmarinic acid]
Malondialdehyde (MDA) in the brain [1]: decreasing
Memory in the Morris water maze spatial task [2]: improved memory
